From US20200071310A1, “N-ARYL PYRAZOLES AS NRF2 REGULATORS” (GLAXOSMITHKLINE INTELLECTUAL PROPERTY DEVELOPMENT LIMITED, priority 2016, published 2020)
pEC50: −log10 of the molar value. Structures can show the parent of a compound that is named as a salt. Where two headings read alike, the source gives them in different places.

Key:
[1] = system: NQO1 specific enzyme activity in BEAS-2B cells; experiment: BEAS-2B NQO1 MTT Assay; format: cell-based; details: NQO1 specific activity induction, BEAS-2B cells, 48 hours, read-out: EC50
Source text: NAD(P)H:quinone oxidoreductase 1 (NQO1), also called DT diaphorase, is a homodimeric FAD-containing enzyme that catalyzes obligatory NAD(P)H-dependent two-electron reductions of quinones and protects cells against the toxic and neoplastic effects of free radicals and reactive oxygen species arising from one-electron reductions. The transcription of NQO1 is finely regulated by NRF2, and thus NQO1 activity is a good marker for NRF2 activation. On day one, frozen BEAS-2B cells (ATCC) were thawed in a water bath, counted, and re-suspended at a concentration of 250,000 cells/mL. Fifty microliters of cells were plated in 384 well black clear-bottomed plates. Plates were incubated at 37° C., 5% CO2 overnight. On day two, plates were centrifuged and 50 nL of compound or controls were added to the cells. Plates were then incubated at 37° C., 5% CO2 for 48 hours. On day four, medium was aspirated from the plate and crude cell lysates were made by adding 13 uL of 1× Cell Signaling Technologies lysis buffer with 1 Complete, Mini, EDTA-free Protease Inhibitor Tablet (Roche) for each 10 mL of lysis buffer. After lysis plates were incubated for 20 minutes at room temperature. Two microliters of lysate were removed for use in Cell Titer Glo assay (Promega) and MTT cocktail was prepared (Prochaska et. al. 1998) for measurement of NQO1 activity. Fifty microliters of MTT cocktail is added to each well, plate is centrifuged, and analyzed on an Envision plate reader (Perkin Elmer) using Absorbance 570 nm label for 30 minutes. Product formation was measured kinetically and the pEC50 of NQO1 specific activity induction was calculated by plotting the change in absorbance (Delta OD/min) versus the log of compound concentration followed by 3-parameter fitting. pEC50 is the negative log of the EC50.

[2] = system: histologic abnormalities, especially hepatic fibrosis; details: rats on a choline-deficient L-amino acid-defined diet; cited from earlier work
[3] = system: COPD macrophages and alveolar macrophages from cigarette smoke-exposed mice; details: cited from earlier work
cortical damage = details: rats, cerebral ischemia-reperfusion model; cited from earlier work
[4] = system: cortical glutathione levels; details: NRF2 wild-type but not KO mice; cited from earlier work

CCOc1ccc(Br)cc1CN(Cc1cccc(-n2ncc(C(=O)O)c2[C@@H]2C[C@H]2c2cn(C)nn2)c1)C1CC1 (relative stereo) [Example 55, 1-(3-(((5-bromo-2-ethoxybenzyl)cyclo-propyl)amino)methyl)phenyl)-5-((trans)-2-(1-methyl-1H-1,2,3-triazol-4-yl)cyclopropyl)-1H-pyrazole-4-carboxylic acid trifluoroacetate] gave a pEC50 [1] of 6.00 to 7.00.
C[C@H]1Cc2ccc(C(F)(F)F)cc2S(=O)(=O)N([C@@H]2CCc3c2cccc3-n2ncc(C(=O)O)c2[C@@H]2C[C@H]2c2cn(C)nn2)C1 [Example 26b, 1-((R)-1-((S)-4-Methyl-1,1-dioxido-8-(trifluoromethyl)-4,5-dihydrobenzo[f][1,2]thiazepin-2(3H)-yl)-2,3-dihydro-1H-inden-4-yl)-5-((1R,2R)-2-(1-methyl-1H-1,2,3-triazol-4-yl)cyclopropyl)-1H-pyrazole-4-carboxylic acid] gave a pEC50 ([1]; Homo sapiens) of 5.00 to 6.00.
In the case of O=C(NCc1ccccn1)Nc1nnc(-c2ccco2)o1 [NK-252], the “progression of histologic abnormalities, especially hepatic fibrosis” value [2] is given as “significantly attenuated”.
In the case of C[S+]([O-])CCCCN=C=S (centres unmarked) [Sulforaphane], the “expression of Macrophage Receptor with Collagenous structure (MARCO)” value ([3]; COPD macrophages and alveolar macrophages from cigarette smoke-exposed mice) is listed as “increases” and the “bacterial phagocytosis (Pseudomonas aeruginosa, non-typable Haemophilus influenzae) and bacterial clearance” value ([3]; ex vivo and in vivo) is listed as “improving”.
For Cc1c(-c2cnccn2)ssc1=S [oltipraz], the “progression of histologic abnormalities, especially hepatic fibrosis” value [2] is listed as “significantly attenuated”.
For CC(C)(C)c1cc(O)ccc1O [tert-butylhydroquinone], the cortical damage (cortical damage) is given as “reduced cortical damage” and the cortical glutathione levels [4] is given as “increased in NRF2 wild-type but not KO mice”.
